Literature values in article PMC7395068, “The evolution of strategies to minimise the risk of human drug-induced liver injury (DILI) in drug discovery and development” (Archives of Toxicology, 2020).
Where two headings read alike, the source gives them in different places. Where a SMILES comes first, the peptide text is derived from it. [ ]: non-standard residue; d: D form. The star is where a group is joined. dPhe(4-NHCONH2) = NC(=O)Nc1ccc(C[C@@H](N)C(=O)O)cc1; Dihydroorotyl(S) = O=C1C[C@@H](C(=O)*)NC(=O)N1; dPhe(4-Cl) = N[C@H](Cc1ccc(Cl)cc1)C(=O)O; Phe(4-NH2) = Nc1ccc(C[C@H](N)C(=O)O)cc1; d2Nal = N[C@H](Cc1ccc2ccccc2c1)C(=O)O; Lys(iPr) = CC(C)NCCCC[C@H](N)C(=O)O; d3Pal = N[C@H](Cc1cccnc1)C(=O)O

Settings: cited from earlier work
[1] = LTKB DILIrank category, ref Chen 2016
[2] = binary DILI call, ref Chen 2016
[3] = binary in vivo human DILI call, ref Chen 2016
[4] = human DILI, LTKB DILIrank category, ref Chen 2016

Structure (SMILES) | DILI +VE (5-8), DILI -VE (-4) [3] | DILI severity category [4] | further results
COc1ccc(C[C@@H]2c3cc(OC)c(OC)cc3CC[N@+]2(C)CCC(=O)OCCCCCOC(=O)CC[N@@+]2(C)CCc3cc(OC)c(OC)cc3[C@H]2Cc2ccc(OC)c(OC)c2)cc1OC [cisatracurium besylate] |  |  | DILI severity category [1]: vNo-DILI-Concern; DILI +VE (5-8), DILI -VE (-4) [2]: -VE
CCC[C@@H]1C[C@@H](C(=O)N[C@@H]([C@H]2O[C@H](SC)[C@H](OP(=O)(O)O)[C@@H](O)[C@H]2O)[C@H](C)Cl)N(C)C1 [clindamycin-2-phosphate] |  |  | DILI severity category (in vivo): Ambiguous DILI-concern
CCC[C@@H]1C[C@@H](C(=O)N[C@@H]([C@H]2O[C@H](SC)[C@H](O)[C@@H](O)[C@H]2O)[C@H](C)Cl)N(C)C1 [clindamycin] |  |  | DILI severity category (in vivo): vLess-DILI-Concern
Nc1nc(Cl)nc2c1ncn2[C@@H]1O[C@H](CO)[C@@H](O)[C@@H]1F [clofarabine] |  |  | DILI severity category [1]: Ambiguous DILI-concern; DILI +VE (5-8), DILI -VE (-4) [2]: -VE
CN(C)CCCC1c2ccccc2Nc2ccc(Cl)cc21 (centres unmarked) [clomacran] |  |  | DILI severity category [1]: vMost-DILI-Concern
COc1ccc2c(C(=O)c3ccc(Cl)cc3)c(C)n(CC(=O)O)c2c1 [clometacin] |  |  | DILI severity category [1]: vMost-DILI-Concern
CCN(CC)CCOc1ccc(C(=C(Cl)c2ccccc2)c2ccccc2)cc1 [clomiphene] |  |  | DILI severity category [1]: vLess-DILI-Concern
COC(=O)[C@H](c1ccccc1Cl)N1CCc2sccc2C1 [clopidogrel] |  |  | DILI severity category [1]: vLess-DILI-Concern
O=C(O)C1N=C(c2ccccc2)c2cc(Cl)ccc2NC1=O (centres unmarked) [clorazepate] |  |  | DILI severity category [1]: Ambiguous DILI-concern; DILI +VE (5-8), DILI -VE (-4) [2]: -VE
COc1ccc2c3c1O[C@H]1[C@@H](O)C=C[C@H]4[C@@H](C2)N(C)CC[C@@]341 [codeine] |  |  | DILI +VE (5-8), DILI -VE (-4) (in vivo): -VE; DILI severity category (in vivo): vNo-DILI-Concern
CC(=O)OCC(=O)[C@@]1(O)CC[C@H]2[C@@H]3CCC4=CC(=O)CC[C@]4(C)[C@H]3C(=O)C[C@@]21C [cortisone acetate] | -VE | vNo-DILI-Concern | 
[Cl][Cu][Cl] [cupric chloride] |  |  | DILI +VE (5-8), DILI -VE (-4) (in vivo): -VE; DILI severity category (in vivo): vNo-DILI-Concern
NCCS [cysteamine] | -VE | Ambiguous DILI-concern | 
CCCCCCCCCC(=O)N[C@@H](Cc1c[nH]c2ccccc12)C(=O)N[C@H](CC(N)=O)C(=O)N[C@@H](CC(=O)O)C(=O)N[C@@H]1C(=O)NCC(=O)N[C@@H](CCCN)C(=O)N[C@@H](CC(=O)O)C(=O)N[C@H](C)C(=O)N[C@@H](CC(=O)O)C(=O)NCC(=O)N[C@H](CO)C(=O)N[C@@H]([C@H](C)CC(=O)O)C(=O)N[C@@H](CC(=O)c2ccccc2N)C(=O)O[C@@H]1C [daptomycin] | +VE | vLess-DILI-Concern | 
NC(=O)C(c1ccccc1)(c1ccccc1)[C@@H]1CCN(CCc2ccc3c(c2)CCO3)C1 [darifenacin] | -VE | vNo-DILI-Concern | 
Nc1ncn([C@H]2C[C@H](O)[C@@H](CO)O2)c(=O)n1 [decitabine] | -VE | Ambiguous DILI-concern | 
CC(=O)N[C@H](Cc1ccc2ccccc2c1)C(=O)N[C@H](Cc1ccc(Cl)cc1)C(=O)N[C@H](Cc1cccnc1)C(=O)N[C@@H](CO)C(=O)N[C@@H](Cc1ccc(NC(=O)[C@@H]2CC(=O)NC(=O)N2)cc1)C(=O)N[C@H](Cc1ccc(NC(N)=O)cc1)C(=O)N[C@@H](CC(C)C)C(=O)N[C@@H](CCCCNC(C)C)C(=O)N1CCC[C@H]1C(=O)N[C@H](C)C(N)=O [degarelix] (Ac-[d2Nal][dPhe(4-Cl)][d3Pal]S[Phe(4-NH2)](Dihydroorotyl(S))[dPhe(4-NHCONH2)]L[Lys(iPr)]P[dA]-NH2) | -VE | Ambiguous DILI-concern | 
CC(C)Nc1cccnc1N1CCN(C(=O)c2cc3cc(NS(C)(=O)=O)ccc3[nH]2)CC1 [delavirdine] | -VE | Ambiguous DILI-concern | 
CN(C)CC(c1ccc(O)cc1)C1(O)CCCCC1 (centres unmarked) [desvenlafaxine] | +VE | vLess-DILI-Concern | 
CN(C)CC[C@@H](c1ccc(Cl)cc1)c1ccccn1 [dexchlorpheniramine] | -VE | vNo-DILI-Concern | 
Cc1c(OCC(F)(F)F)ccnc1C[S@@+]([O-])c1nc2ccccc2[nH]1 [dexlansoprazole] | +VE | vLess-DILI-Concern | 
Cc1cccc([C@H](C)c2cnc[nH]2)c1C [dexmedetomidine] | -VE | Ambiguous DILI-concern | 
COC(=O)[C@H](c1ccccc1)[C@H]1CCCCN1 [dexmethylphenidate] |  |  | DILI +VE (5-8), DILI -VE (-4) (in vivo): +VE; DILI severity category (in vivo): vLess-DILI-Concern
CC(C)(CO)[C@@H](O)C(=O)NCCCO [dexpanthenol] |  |  | DILI +VE (5-8), DILI -VE (-4) (in vivo): -VE; DILI severity category (in vivo): vNo-DILI-Concern
C[C@@H](CN1CC(=O)NC(=O)C1)N1CC(=O)NC(=O)C1 [dexrazoxane] | -VE | Ambiguous DILI-concern | 
